Assay results published in patent US20260285855A1, “HETEROARYL DERIVATIVES AS DDRS INHIBITORS” (CHIESI FARMACEUTICI S.P.A., priority 2023, published 2026).

Key:
DDR1 = target: T1, DDR1 (Homo sapiens, UniProt Q08345); assay: LanthaScreen Europium Kinase Binding assay, DDR1; conditions: 5 nM DDR1, 20 nM Kinase Tracer 178, 1 h at rt; Ki from IC50 by Cheng-Prusoff; read-out: Ki DDR1
T1 construct: purchased Carna Biosciences
Procedure: (§1) DDR1 and DDR2 binding assays were performed using Life Technologies LanthaScreen™ Europium Kinase Binding assay. […] IC50 values were determined in GraphPad Prism 7.0 software, using 4 parameter model: log (inhibitor) vs. response. IC50 values were converted in Ki using the Cheng-Prusoff equation (Ki-IC50/(1+ [Tracer]/Kd).

DDR2 = target: T2, DDR2 (Homo sapiens, UniProt Q16832); assay: LanthaScreen Europium Kinase Binding assay, DDR2; conditions: 5 nM DDR2, 10 nM Kinase Tracer 178, 1 h at rt; Ki from IC50 by Cheng-Prusoff; read-out: Ki DDR2
T2 construct: purchased Life Technologies
T2 sequence (Q16832 22-855): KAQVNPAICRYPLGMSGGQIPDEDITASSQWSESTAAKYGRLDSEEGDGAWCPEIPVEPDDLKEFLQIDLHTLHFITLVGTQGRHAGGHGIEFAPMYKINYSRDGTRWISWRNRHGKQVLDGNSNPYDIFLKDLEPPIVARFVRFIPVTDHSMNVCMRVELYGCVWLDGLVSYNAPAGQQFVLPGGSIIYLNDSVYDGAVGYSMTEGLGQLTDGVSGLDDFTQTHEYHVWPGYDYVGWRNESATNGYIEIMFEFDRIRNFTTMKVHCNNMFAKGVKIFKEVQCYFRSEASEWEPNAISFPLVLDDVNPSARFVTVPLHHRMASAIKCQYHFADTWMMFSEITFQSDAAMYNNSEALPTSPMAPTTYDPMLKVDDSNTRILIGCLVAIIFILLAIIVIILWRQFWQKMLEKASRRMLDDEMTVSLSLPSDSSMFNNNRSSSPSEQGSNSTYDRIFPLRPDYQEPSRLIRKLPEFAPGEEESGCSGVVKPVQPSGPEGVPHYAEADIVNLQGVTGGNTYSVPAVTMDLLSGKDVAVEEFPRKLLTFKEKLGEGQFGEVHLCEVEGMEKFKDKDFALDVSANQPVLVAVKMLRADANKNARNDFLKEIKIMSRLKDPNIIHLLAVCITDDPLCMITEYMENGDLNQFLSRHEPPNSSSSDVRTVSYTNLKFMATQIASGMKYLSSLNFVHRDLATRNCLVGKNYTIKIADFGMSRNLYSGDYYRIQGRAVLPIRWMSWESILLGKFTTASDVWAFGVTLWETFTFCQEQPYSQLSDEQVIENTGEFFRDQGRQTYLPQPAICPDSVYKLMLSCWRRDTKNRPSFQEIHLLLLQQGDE
Procedure: as §1

T1 sequence (Q08345 19-913): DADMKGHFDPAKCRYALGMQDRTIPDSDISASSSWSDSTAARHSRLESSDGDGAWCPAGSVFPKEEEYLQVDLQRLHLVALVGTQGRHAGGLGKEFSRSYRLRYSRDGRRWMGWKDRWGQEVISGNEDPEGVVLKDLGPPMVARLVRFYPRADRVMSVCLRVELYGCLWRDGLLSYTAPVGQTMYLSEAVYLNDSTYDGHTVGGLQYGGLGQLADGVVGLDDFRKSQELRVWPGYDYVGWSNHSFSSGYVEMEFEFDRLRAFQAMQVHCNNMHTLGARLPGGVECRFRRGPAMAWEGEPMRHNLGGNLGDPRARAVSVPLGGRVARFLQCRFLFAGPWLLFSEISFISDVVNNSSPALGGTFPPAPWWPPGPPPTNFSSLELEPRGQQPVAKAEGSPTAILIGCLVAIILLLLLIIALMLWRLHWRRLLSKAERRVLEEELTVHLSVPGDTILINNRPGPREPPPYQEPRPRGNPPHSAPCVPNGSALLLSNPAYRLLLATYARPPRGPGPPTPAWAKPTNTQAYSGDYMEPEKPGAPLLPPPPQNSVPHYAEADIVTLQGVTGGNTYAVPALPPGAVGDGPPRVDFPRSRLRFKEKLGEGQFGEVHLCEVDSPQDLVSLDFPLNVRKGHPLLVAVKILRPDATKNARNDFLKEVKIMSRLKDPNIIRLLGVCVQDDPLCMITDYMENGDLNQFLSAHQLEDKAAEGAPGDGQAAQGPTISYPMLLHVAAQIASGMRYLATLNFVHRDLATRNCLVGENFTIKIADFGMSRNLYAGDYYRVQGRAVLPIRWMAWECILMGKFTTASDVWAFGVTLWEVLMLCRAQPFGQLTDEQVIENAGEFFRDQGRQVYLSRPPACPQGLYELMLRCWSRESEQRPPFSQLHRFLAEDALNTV

| SMILES | Ki (DDR1) [nM] | Ki (DDR2) [nM] |
| --- | --- | --- |
| O=C(Nc1cccc(C(F)(F)F)c1)NC1CC2(C1)CN(C(=O)c1cnn3ccccc13)C2 [Example 40, 1-(2-(pyrazolo[1,5-a]pyridine-3-carbonyl)-2-azaspiro[3.3]heptan-6-yl)-3-(3-(trifluoromethyl)phenyl)urea] | < 5 | < 5 |
| Cn1ccn2ncc(C(=O)N3CC4(CC(NC(=O)Nc5cc(OC(F)(F)F)ccc5F)C4)C3)c12 [Example 72, 1-(2-fluoro-5-(trifluoromethoxy)phenyl)-3-(2-(1-methyl-1H-imidazo[1,2-b]pyrazole-7-carbonyl)-2-azaspiro[3.3]heptan-6-yl)urea] | < 5 | 5 to 25 |
| COc1ccc(OC(F)(F)F)cc1NC(=O)NC1CC2(C1)CN(C(=O)c1cnn3ccn(C)c13)C2 [Example 36, 1-(2-methoxy-5-(trifluoromethoxy)phenyl)-3-(2-(1-methyl-1H-imidazo[1,2-b]pyrazole-7-carbonyl)-2-azaspiro[3.3]heptan-6-yl)urea] | < 5 | 5 to 25 |
| COc1ccc(OC(F)(F)F)cc1NC(=O)NC1CC2(C1)CN(C(=O)c1cnc3cnccn13)C2 [Example 57, 1-(2-(imidazo[1,2-a]pyrazine-3-carbonyl)-2-azaspiro[3.3]heptan-6-yl)-3-(2-methoxy-5-(trifluoromethoxy)phenyl)urea] | < 5 | 5 to 25 |
| Cn1ccn2ncc(C(=O)N3CC4(CC(NC(=O)Nc5cc(C(F)(F)F)ncn5)C4)C3)c12 [Example 103, 1-(2-(1-methyl-1H-imidazo[1,2-b]pyrazole-7-carbonyl)-2-azaspiro[3.3]heptan-6-yl)-3-(6-(trifluoromethyl)pyrimidin-4-yl)urea] | < 5 | 5 to 25 |
| Cc1ccc(-n2nc(C(C)(C)C)cc2NC(=O)NC2CC3(C2)CN(C(=O)c2cnn4ccn(C)c24)C3)cc1 [Example 43, 1-(3-(tert-butyl)-1-(p-tolyl)-1H-pyrazol-5-yl)-3-(2-(1-methyl-1H-imidazo[1,2-b]pyrazole-7-carbonyl)-2-azaspiro[3.3]heptan-6-yl)urea] | < 5 | 5 to 25 |
| COCCn1ccn2ncc(C(=O)N3CC4(CC(N(C)C(=O)Nc5cncc(C(F)(F)F)c5)C4)C3)c12 [Example 213, 1-(2-(1-(2-methoxyethyl)-1H-imidazo[1,2-b]pyrazole-7-carbonyl)-2-azaspiro[3.3]heptan-6-yl)-1-methyl-3-(5-(trifluoromethyl)pyridin-3-yl)urea] | 5 to 25 | 25 to 100 |
| O=C(Nc1cc(C(F)(F)F)ccn1)NC1CC2(C1)CN(C(=O)c1cnn3ccsc13)C2 [Example 59, 1-(2-(pyrazolo[5,1-b]thiazole-7-carbonyl)-2-azaspiro[3.3]heptan-6-yl)-3-(4-(trifluoromethyl)pyridin-2-yl)urea] | < 5 | 5 to 25 |
| Cn1nc(NC(=O)NC2CC3(C2)CN(C(=O)c2ncnc4ccsc24)C3)cc1C(C)(C)C [Example 100, 1-(5-(tert-butyl)-1-methyl-1H-pyrazol-3-yl)-3-(2-(thieno[3,2-d]pyrimidine-4-carbonyl)-2-azaspiro[3.3]heptan-6-yl)urea] | < 5 | 5 to 25 |
| CN(C(=O)Nc1cncc(C(F)(F)F)c1)C1CC2(C1)CN(C(=O)c1cnn3cc(-c4cncnc4)ccc13)C2 [Example 245, 1-methyl-1-(2-(6-(pyrimidin-5-yl)pyrazolo[1,5-a]pyridine-3-carbonyl)-2-azaspiro[3.3]heptan-6-yl)-3-(5-(trifluoromethyl)pyridin-3-yl)urea] | < 5 | 5 to 25 |
| Cn1ccn2ncc(C(=O)N3CC4(CC(NC(=O)Nc5cccc(OC(F)F)c5)C4)C3)c12 [Example 67, 1-(3-(difluoromethoxy)phenyl)-3-(2-(1-methyl-1H-imidazo[1,2-b]pyrazole-7-carbonyl)-2-azaspiro[3.3]heptan-6-yl)urea] | < 5 | 5 to 25 |
| CN(C(=O)Nc1cc(C#N)cc(C(F)(F)F)c1)C1CC2(C1)CN(C(=O)c1cnn3ccn(C)c13)C2 [Example 53, 3-(3-cyano-5-(trifluoromethyl)phenyl)-1-methyl-1-(2-(1-methyl-1H-imidazo[1,2-b]pyrazole-7-carbonyl)-2-azaspiro[3.3]heptan-6-yl)urea] | < 5 | 5 to 25 |
| CCc1ncc(C(F)(F)F)cc1NC(=O)N(C)C1CC2(C1)CN(C(=O)c1cnn3ccn(C)c13)C2 [Example 310, 3-(2-ethyl-5-(trifluoromethyl)pyridin-3-yl)-1-methyl-1-(2-(1-methyl-1H-imidazo[1,2-b]pyrazole-7-carbonyl)-2-azaspiro[3.3]heptan-6-yl)urea] | 5 to 25 | 25 to 100 |
| CN(C(=O)Nc1cc(C2CC2)ccn1)C1CC2(C1)CN(C(=O)c1cnn3ccn(C)c13)C2 [Example 156, 3-(4-cyclopropylpyridin-2-yl)-1-methyl-1-(2-(1-methyl-1H-imidazo[1,2-b]pyrazole-7-carbonyl)-2-azaspiro[3.3]heptan-6-yl)urea] | < 5 | 5 to 25 |
| CN(C(=O)Nc1cc(OC(F)(F)F)ccn1)C1CC2(C1)CN(C(=O)c1cnn3cc(-c4cnn(C)c4)ccc13)C2 [Example 242, 1-(2-(6-(1,2-dimethyl-1H-214-pyrazol-4-yl)pyrazolo[1,5-a]pyridine-3-carbonyl)-2-azaspiro[3.3]heptan-6-yl)-1-methyl-3-(4-(trifluoromethoxy)pyridin-2-yl)urea] | < 5 | 5 to 25 |
| Cn1ccn2ncc(C(=O)N3CC4(CC(OC(=O)Nc5cncc(C(F)(F)F)c5)C4)C3)c12 [Example 146, 2-(1-methyl-1H-imidazo[1,2-b]pyrazole-7-carbonyl)-2-azaspiro[3.3]heptan-6-yl(5-(trifluoromethyl)pyridin-3-yl)carbamate] | < 5 | 5 to 25 |
| CN(C(=O)Nc1cccc(C(F)(F)F)c1)C1CC2(C1)CN(C(=O)c1cnn3ccsc13)C2 [Example 133, 1-methyl-1-(2-(pyrazolo[5,1-b]thiazole-7-carbonyl)-2-azaspiro[3.3]heptan-6-yl)-3-(3-(trifluoromethyl)phenyl)urea] | < 5 | 5 to 25 |
| Cn1ccn2ncc(C(=O)N3CC4(CC(NC(=O)Nc5cc(C(F)(F)F)ccc5OCCN5CCOCC5)C4)C3)c12 [Example 56, 1-(2-(1-methyl-1H-imidazo[1,2-b]pyrazole-7-carbonyl)-2-azaspiro[3.3]heptan-6-yl)-3-(2-(2-morpholinoethoxy)-5-(trifluoromethyl)phenyl)urea] | < 5 | 5 to 25 |
| COc1cc(NC(=O)N(C)C2CC3(C2)CN(C(=O)c2cnn4ccn(C)c24)C3)cc(C(F)(F)F)c1 [Example 287, 3-(3-methoxy-5-(trifluoromethyl)phenyl)-1-methyl-1-(2-(1-methyl-1H-imidazo[1,2-b]pyrazole-7-carbonyl)-2-azaspiro[3.3]heptan-6-yl)urea] | < 5 | 5 to 25 |
| COc1ccc(OC(F)(F)F)cc1NC(=O)CC1CC2(C1)CN(C(=O)c1ccnc3ccsc13)C2 [Example 139, N-(2-methoxy-5-(trifluoromethoxy)phenyl)-2-(2-(thieno[3,2-b]pyridine-7-carbonyl)-2-azaspiro[3.3]heptan-6-yl)acetamide] | < 5 | < 5 |
| COc1ccc(C(F)(F)F)cc1NC(=O)N(C)C1CC2(C1)CN(C(=O)c1ncnc3[nH]ccc13)C2 [Example 260, 1-(2-(7H-pyrrolo[2,3-d]pyrimidine-4-carbonyl)-2-azaspiro[3.3]heptan-6-yl)-3-(2-methoxy-5-(trifluoromethyl)phenyl)-1-methylurea] | < 5 | 5 to 25 |
| O=C(Nc1cccc(C(F)(F)F)c1)NC1CC2(C1)CN(C(=O)c1cnn3ccn(CCO)c13)C2 [Example 102, 1-(2-(1-(2-hydroxyethyl)-1H-imidazo[1,2-b]pyrazole-7-carbonyl)-2-azaspiro[3.3]heptan-6-yl)-3-(3-(trifluoromethyl)phenyl)urea] | < 5 | 5 to 25 |
| O=C(CC1CC2(C1)CN(C(=O)c1cnn3ccn(C(F)F)c13)C2)Nc1cc(OC(F)(F)F)ccn1 [Example 302, 2-(2-(1-(difluoromethyl)-1H-imidazo[1,2-b]pyrazole-7-carbonyl)-2-azaspiro[3.3]heptan-6-yl)-N-(4-(trifluoromethoxy)pyridin-2-yl)acetamide] | < 5 | < 5 |
| COc1cccc(NC(=O)NC2CC3(C2)CN(C(=O)c2cnn4ccsc24)C3)c1 [Example 33, 1-(3-methoxyphenyl)-3-(2-(pyrazolo[5,1-b]thiazole-7-carbonyl)-2-azaspiro[3.3]heptan-6-yl)urea] | 5 to 25 | > 100 |
